In patent US7432342B2, “Kinase anchor protein muteins, peptides thereof and related documents” (Sequenom, Inc., priority 2002, dated 2008):
Ends that are not written are not given here. Peptide text beside a SMILES is read from it. * marks the point of attachment. X1 = CN(C)c1ccc2c(c1)Oc1cc(N(C)C)ccc1C21OC(=O)c2cc(N3C(=O)CC(*)C3=O)ccc21

Assays:
[1] = biological target: T1, full-length RIα (Bos taurus, UniProt P00514); experiment: Fluorescence anisotropy binding assay (Example 9); design: species or system bovine; conditions: for binding to RIα, in words: compared with the unsubstituted peptide; for Kd: Table 8, truncated and substituted peptides, read-out: KD (nM) Rlα
T1 construct: Full-length bovine RIα was expressed in E. coli 222; made in house; host or cells: E. coli 222
T1 sequence (P00514 whole entry, the tested form may be a part): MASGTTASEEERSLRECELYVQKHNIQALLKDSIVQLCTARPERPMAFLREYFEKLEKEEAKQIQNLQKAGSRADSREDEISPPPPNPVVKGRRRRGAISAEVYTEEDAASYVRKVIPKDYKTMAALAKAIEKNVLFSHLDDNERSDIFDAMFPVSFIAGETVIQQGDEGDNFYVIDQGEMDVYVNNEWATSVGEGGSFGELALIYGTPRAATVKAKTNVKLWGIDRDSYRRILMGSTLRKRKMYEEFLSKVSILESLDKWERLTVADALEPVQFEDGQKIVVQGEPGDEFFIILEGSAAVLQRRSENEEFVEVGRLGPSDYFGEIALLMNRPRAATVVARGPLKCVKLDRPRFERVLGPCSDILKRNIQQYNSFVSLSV
Method: (§1) Each peptide was fluorescently labeled using a 25 mM solution of tetramethylrhodamine-5-maleimide (catalog number T-6027; Molecular Probes, Eugene, Oreg.) dissolved in DMSO. The peptides were labeled by incubating with a three-fold molar excess of the label for 16 hr at 4° C. in 20 mM Tris, pH 7.0 and 1 mM tris-(2-carboxyethyl) phosphine, hydrochloride (TCEP) (non-thiol reducing agent, Molecular Probes). The sample was quenched with 1 mM, β-mercaptoethanol to bind to any unreacted maleimide and diluted with 0.1% TFA for purification by HPLC. The labeled peptides were resolved using a C18 column with a water/acetonitrile gradient containing 0.1% TFA. The concentration of each peptide was determined by absorbance at 541 nm after diluting into 100% methanol and using an extinction coefficient of 91,000 M^−1 cm^−1 for absorbance of the rhodamine label at 541 nm (Molecular Probes Catalog). The peptides were stored at 4° C. in 50% acetonitrile.
(§2) Full-length murine RIIα was expressed in E. coli BL21 (DE3). Full-length bovine RIα was expressed in E. coli 222. The proteins were purified as previously described using a cAMP affinity resin (Hamuro et al. (2002) J. Mol. Biol., 321:703). The protein concentrations were determined using the following extinction coefficients at 280 nm, which were calculated using a standard concentration of protein calibrated using quantitative amino acid analysis: RIα 52,603 M^−1 cm^−1 and RIIα 62,456 M^−1 cm^−1. The proteins were stored at 4° C. in 50 mM MES pH 5.8, 50 mM NaCl, 2 mM EDTA, 2 mM EGTA, 2 mM DTT.
(§3) Binding of each fluorescently labeled peptide to the regulatory subunits was monitored using fluorescence anisotropy. RIα and RIIα were serially diluted beginning at 1 μM and 0.1 μM, respectively, into 10 mM HEPES pH 7.4, 0.15 M NaCl, 3 mM EDTA, 0.005% Surfactant P20 (Biacore) containing either 10 nM or 1 nM of fluorescently labeled peptide for RIα and RIIα, respectively. The samples were equilibrated for at least 1 hour at room temperature and fluorescence anisotropy monitored using a Fluoromax-2 (Jobin Yvon Horiba, SPEX Division, Edison, N.J.) equipped with Glan-Thompson polarizers. The rhodamine-labeled peptide was excited at 541 nm (5-10 nm bandpass) and emission monitored at 575 nm (5-10 nm bandpass). The anisotropy was calculated directly with the Fluoromax software using the following equation: r=(IVV−G*IVH)/(IVV+2G*IVH) (1) where r is the steady state anisotropy, IVV is the fluorescence intensity with the excitation and emission polarizers oriented in the vertical position (0° from normal), IVH is the fluorescence intensity with the excitation polarizer in the vertical position and the emission polarizer oriented in the horizontal position (90°) relative to the excitation polarizer, G is the monochromator grating factor which is equal to (IHV/IHH), with the first subscript indicating the position of the excitation polarizer and the second subscript indicating position of the emission polarizer. Three separate binding experiments were averaged and fit to a 1:1 binding model using the non-linear regression application in GraphPad Prism version 3.00 (GraphPad Software, San Diego, Calif.).

[2] = biological target: T2, full-length RIIα (Mus musculus, UniProt P12367); experiment: Fluorescence anisotropy binding assay (Example 9); design: species or system murine; conditions: for binding to RIIα, in words: compared with the unsubstituted peptide; for Kd: Table 8, truncated and substituted peptides, read-out: KD (nM) Rllα
T2 construct: Full-length murine RIIα was expressed in E. coli BL21 (DE3); made in house; host or cells: E. coli BL21 (DE3)
T2 sequence (P12367 whole entry, the tested form may be a part): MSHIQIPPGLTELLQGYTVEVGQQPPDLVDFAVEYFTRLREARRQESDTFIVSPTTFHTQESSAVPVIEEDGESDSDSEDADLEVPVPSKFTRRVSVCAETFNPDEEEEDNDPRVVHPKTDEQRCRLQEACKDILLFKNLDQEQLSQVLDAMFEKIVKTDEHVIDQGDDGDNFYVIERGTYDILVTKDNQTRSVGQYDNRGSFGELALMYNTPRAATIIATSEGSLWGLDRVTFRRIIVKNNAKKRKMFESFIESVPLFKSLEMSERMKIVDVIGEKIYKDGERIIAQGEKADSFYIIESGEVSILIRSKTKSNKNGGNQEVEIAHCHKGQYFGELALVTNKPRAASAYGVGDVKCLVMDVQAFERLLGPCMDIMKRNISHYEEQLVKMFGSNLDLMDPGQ
Method: as §1, §2, §3

| binding to RIα, in words [1] | binding to RIIα, in words [2] | Kd [1] [nM] | Kd [2] [nM] | Compound |
| --- | --- | --- | --- | --- |
| – | – | 1.1 | 2.5 | CC[C@H](C)[C@H](NC(=O)[C@H](CCCCN)NC(=O)[C@H](Cc1c[nH]c2ccccc12)NC(=O)[C@H](C)NC(=O)[C@H](CC(C)C)NC(=O)[C@H](CCC(=O)O)NC(=O)[C@H](CCC(=O)O)NC(=O)[C@@H](N)Cc1ccccc1)C(=O)N[C@@H](C)C(=O)N[C@@H](CCCCN)C(=O)N[C@@H](CCSC)C(=O)N[C@H](C(=O)N[C@H](C(=O)N[C@@H](CO)C(=O)N[C@@H](CC(=O)O)C(=O)N[C@H](C(=O)N[C@@H](Cc1ccccc1)C(=O)N[C@@H](CCC(N)=O)C(=O)N[C@@H](CCC(N)=O)C(=O)N[C@@H](CSC1CC(=O)N(c2ccc3c(c2)C(=O)OC32c3ccc(N(C)C)cc3Oc3cc(N(C)C)ccc32)C1=O)C(N)=O)C(C)C)[C@@H](C)CC)[C@@H](C)CC (stereo partly shown) [PV-49] (H-FEELAWKIAKMIISDVFQQC(X1)-NH2) |
| – | – | 19 | 150 | CC[C@H](C)[C@H](NC(=O)[C@H](CCCCN)NC(=O)[C@H](Cc1c[nH]c2ccccc12)NC(=O)[C@H](C)NC(=O)[C@H](CC(C)C)NC(=O)[C@H](CCC(=O)O)NC(=O)[C@H](CCC(=O)O)NC(=O)[C@@H](N)Cc1ccccc1)C(=O)N[C@@H](C)C(=O)N[C@@H](CCCCN)C(=O)N[C@@H](CCSC)C(=O)N[C@H](C(=O)N[C@@H](Cc1c[nH]c2ccccc12)C(=O)N[C@@H](CO)C(=O)N[C@@H](CC(=O)O)C(=O)N[C@H](C(=O)N[C@@H](CCSC)C(=O)N[C@@H](CCC(N)=O)C(=O)N[C@@H](CCC(N)=O)C(=O)N[C@@H](CSC1CC(=O)N(c2ccc3c(c2)C(=O)OC32c3ccc(N(C)C)cc3Oc3cc(N(C)C)ccc32)C1=O)C(N)=O)C(C)C)[C@@H](C)CC (stereo partly shown) [PV-37] (H-FEELAWKIAKMIWSDVMQQC(X1)-NH2) |
| – | – | 39 | 89 | CC[C@H](C)[C@H](NC(=O)[C@H](CCCCN)NC(=O)[C@H](Cc1c[nH]c2ccccc12)NC(=O)[C@H](C)NC(=O)[C@H](Cc1ccccc1)NC(=O)[C@H](CCC(=O)O)NC(=O)[C@H](CCC(=O)O)NC(=O)[C@@H](N)CCC(N)=O)C(=O)N[C@@H](C)C(=O)N[C@@H](CCCCN)C(=O)N[C@@H](CCSC)C(=O)N[C@H](C(=O)N[C@H](C(=O)N[C@@H](CO)C(=O)N[C@@H](CC(=O)O)C(=O)N[C@H](C(=O)N[C@@H](Cc1ccccc1)C(=O)N[C@@H](CCC(N)=O)C(=O)N[C@@H](CCC(N)=O)C(=O)N[C@@H](CSC1CC(=O)N(c2ccc3c(c2)C(=O)OC32c3ccc(N(C)C)cc3Oc3cc(N(C)C)ccc32)C1=O)C(N)=O)C(C)C)C(C)C)[C@@H](C)CC (stereo partly shown) [PV-47] (H-QEEFAWKIAKMIVSDVFQQC(X1)-NH2) |
| – | – | 12 | 124 | CC[C@H](C)[C@H](NC(=O)[C@H](CCCCN)NC(=O)[C@H](Cc1c[nH]c2ccccc12)NC(=O)[C@H](C)NC(=O)[C@H](Cc1ccccc1)NC(=O)[C@H](CCC(=O)O)NC(=O)[C@H](CCC(=O)O)NC(=O)[C@@H](N)CCC(N)=O)C(=O)N[C@@H](C)C(=O)N[C@@H](CCCCN)C(=O)N[C@@H](CCSC)C(=O)N[C@H](C(=O)N[C@H](C(=O)N[C@@H](CO)C(=O)N[C@@H](CC(=O)O)C(=O)N[C@H](C(=O)N[C@@H](Cc1ccccc1)C(=O)N[C@@H](CCC(N)=O)C(=O)N[C@@H](CCC(N)=O)C(=O)N[C@@H](CSC1CC(=O)N(c2ccc3c(c2)C(=O)OC32c3ccc(N(C)C)cc3Oc3cc(N(C)C)ccc32)C1=O)C(N)=O)C(C)C)[C@@H](C)CC)[C@@H](C)CC (stereo partly shown) [PV-48] (H-QEEFAWKIAKMIISDVFQQC(X1)-NH2) |

Second part, the compound before the results:

| Compound | binding to RIα, in words [1] | binding to RIIα, in words [2] | Kd [1] [nM] | Kd [2] [nM] |
| --- | --- | --- | --- | --- |
| Ac-DLAWKIAKMIVSDVMQQ (listed as Homo sapiens) [SEQ ID NO:102] | reduced binding | reduced binding | – | – |
| CC[C@H](C)[C@H](NC(=O)[C@H](CCCCN)NC(=O)[C@H](Cc1c[nH]c2ccccc12)NC(=O)[C@H](C)NC(=O)[C@H](CC(C)C)NC(=O)[C@H](CC(=O)O)NC(C)=O)C(=O)N[C@@H](C)C(=O)N[C@@H](CCCCN)C(=O)N[C@@H](CCSC)C(=O)N[C@H](C(=O)N[C@H](C(=O)N[C@@H](CO)C(=O)N[C@@H](CC(=O)O)C(=O)N[C@H](C(=O)N[C@@H](CCSC)C(=O)N[C@@H](CCC(N)=O)C(=O)N[C@@H](CCC(N)=O)C(=O)N[C@@H](CSC1CC(=O)N(c2ccc3c(c2)C(=O)OC32c3ccc(N(C)C)cc3Oc3cc(N(C)C)ccc32)C1=O)C(N)=O)C(C)C)C(C)C)[C@@H](C)CC (stereo partly shown) [SEQ ID NO:112, Ac-DLAWKIAKMIVSDVMQQC] (Ac-DLAWKIAKMIVSDVMQQC(X1)-NH2) | – | – | 773 | 107 |
| CC[C@H](C)[C@H](NC(=O)[C@H](CCCCN)NC(=O)[C@H](Cc1c[nH]c2ccccc12)NC(=O)[C@H](C)NC(=O)[C@H](CC(C)C)NC(=O)[C@H](CCC(=O)O)NC(=O)[C@H](CCC(=O)O)NC(=O)[C@H](CCC(N)=O)NC(=O)[C@H](C)NC(=O)[C@H](CCC(=O)O)NC(=O)[C@H](CC(=O)O)NC(=O)[C@@H](NC(=O)[C@H](CC(N)=O)NC(=O)CNC(=O)[C@H](CCC(N)=O)NC(=O)[C@@H](N)C(C)C)[C@@H](C)O)C(=O)N[C@@H](C)C(=O)N[C@@H](CCCCN)C(=O)N[C@@H](CCSC)C(=O)N[C@H](C(=O)N[C@@H](Cc1c[nH]c2ccccc12)C(=O)N[C@@H](CO)C(=O)N[C@@H](CC(=O)O)C(=O)N[C@H](C(=O)N[C@@H](CCSC)C(=O)N[C@@H](CCC(N)=O)C(=O)N[C@@H](CCC(N)=O)C(=O)N[C@@H](CSC1CC(=O)N(c2ccc3c(c2)C(=O)OC32c3ccc(N(C)C)cc3Oc3cc(N(C)C)ccc32)C1=O)C(N)=O)C(C)C)[C@@H](C)CC (stereo partly shown) [SEQ ID NO:111] (H-VQGNTDEAQEELAWKIAKMIWSDVMQQC(X1)-NH2) | – | – | 120 | 83 |
| VQGNTDEAQEELAWKIAKMIWSD[I/V]MQQ [SEQ ID NO:54] | binds tightly | weakly | – | – |
